The text below walks through data of US20220061324A1, “PESTICIDALLY ACTIVE HETEROCYCLIC DERIVATIVES WITH SULFUR CONTAINING SUBSTITUENTS” (SYNGENTA CROP PROTECTION AG, priority 2018, published 2022).

Where two headings read alike, the source gives them in different places.

Common to all, as to assay type: in vivo
The subject of assay [1] is Plutella xylostella (Diamond Back Moth). Put plainly: Activity against Plutella xylostella (diamond back moth), artificial diet. The conditions noted are these: 192 h, read-out: effect in at least one of the two categories (mortality or growth inhibition); for percent effect (mortality or growth inhibition) at 200 ppm: application rate 200 ppm, eggs, 8 days after infestation. As to the method: Example B3: Activity Against Plutella xylostella (Diamond Back Moth)
24-well microtiter plates with artificial diet were treated with aqueous test solutions prepared from 10,000 ppm DMSO stock solutions by pipetting. After drying, Plutella eggs were pipetted through a plastic stencil onto a gel blotting paper and the plate was closed with it. The samples were assessed for mortality and growth inhibition in comparison to untreated samples 8 days after infestation.

Assay [2] deals with Diabrotica balteata (Corn Root Worm). Put plainly: Activity against Diabrotica balteata (corn root worm), maize sprouts sprayed. The conditions noted are these: 96 h, read-out: effect in at least one of the two categories (mortality or growth inhibition); for percent effect (mortality or growth inhibition) at 200 ppm: application rate 200 ppm, L2 larvae, 4 days after infestation. The method, then: Example B1: Activity Against Diabrotica balteata (Corn Root Worm)
Maize sprouts placed onto an agar layer in 24-well microtiter plates were treated with aqueous test solutions prepared from 10,000 ppm DMSO stock solutions by spraying. After drying, the plates were infested with L2 larvae (6 to 10 per well). The samples were assessed for mortality and growth inhibition in comparison to untreated samples 4 days after infestation.

The subject of assay [3] is Spodoptera littoralis (Egyptian Cotton Leaf Worm). Put plainly: Activity against Spodoptera littoralis (Egyptian cotton leaf worm), cotton leaf discs. The conditions noted are these: foliar, 72 h, read-out: control (mortality, anti-feedant effect or growth inhibition). The method, then:
Example B5: Activity Against Spodoptera littoralis (Egyptian Cotton Leaf Worm)
Cotton leaf discs were placed onto agar in 24-well microtiter plates and sprayed with aqueous test solutions prepared from 10,000 ppm DMSO stock solutions. After drying the leaf discs were infested with five L1 larvae. The samples were assessed for mortality, anti-feeding effect, and growth inhibition in comparison to untreated samples 3 days after infestation. Control of Spodoptera littoralis by a test sample is given when at least one of the categories mortality, anti-feedant effect, and growth inhibition is higher than the untreated sample.

Assay [4] relates to Myzus persicae (Green Peach Aphid). The assay is described as follows: Activity against Myzus persicae (green peach aphid), feeding/contact activity. The conditions noted are these: 144 h. As to the method:
Example B4: Activity Against Myzus persicae (Green Peach Aphid) Feeding/Contact Activity
Sunflower leaf discs were placed onto agar in a 24-well microtiter plate and sprayed with aqueous test solutions prepared from 10,000 ppm DMSO stock solutions. After drying, the leaf discs were infested with an aphid population of mixed ages. The samples were assessed for mortality 6 days after infestation.

The mark [5] stands for this setting: application rate 200 ppm, L1 larvae, 3 days after infestation.
[6] abbreviates: application rate 200 ppm, feeding/contact, mixed ages, 6 days after infestation, read-out: mortality.

Broadly, the mortality is the percentage killed. On to `CCS(=O)(=O)c1cc(Br)cnc1-c1ncc2c(OCC(F)(F)C(F)(F)F)nccn12` [Compound P4, 3-(5-bromo-3-ethylsulfonyl-2-pyridyl)-8-(2,2,3,3,3-pentafluoropropoxy)imi-dazo[1,5-a]pyrazine], for which the percent control (mortality or growth inhibition) at 200 ppm in assay [1] and in assay [2] was at least 80% throughout. Further, the percent control (mortality, anti-feedant effect or growth inhibition) at 200 ppm in assay [3] is at least 80%. In assay [4], this compound gave a mortality at 200 ppm of at least 80%.

As for `CCSc1cccnc1-c1ncc2c(OCC(F)(F)C(F)F)nccn12` [Compound P5], the percent control (mortality or growth inhibition) at 200 ppm in assay [1] and in assay [2] was at least 80% in each case. In addition, the percent control (mortality, anti-feedant effect or growth inhibition) at 200 ppm in assay [3] is at least 80%. In assay [4], this compound yielded a mortality at 200 ppm of at least 80%.

Consider `CCS(=O)(=O)c1cccnc1-c1ncc2c(OCC(F)(F)C(F)F)nccn12` [Compound P6, 3-(3-ethylsulfonyl-2-pyridyl)-8-(2,2,3,3-tetrafluoropropoxy)imi-dazo[1,5-a]pyrazine], for which the percent control (mortality or growth inhibition) at 200 ppm in assay [1] and in assay [2] was at least 80% throughout. Also, the percent control (mortality, anti-feedant effect or growth inhibition) at 200 ppm in assay [3] is at least 80%. The compound also showed a mortality at 200 ppm in assay [4] of at least 80%.

Consider `CCSc1cccnc1-c1ncc2c(OCC(F)(F)C(F)(F)F)nccn12` [Compound P7, 3-(3-ethylsulfanyl-2-pyridyl)-8-(2,2,3,3,3-pentafluoropropoxy)imi-dazo[1,5-a]pyrazine], for which the percent control (mortality or growth inhibition) at 200 ppm in assay [1] and in assay [2] was at least 80% throughout. Besides, the mortality at 200 ppm in assay [4] was at least 80%.

With `CCS(=O)(=O)c1ccc(NC(=O)NC)nc1-c1ncc2c(OCC(F)(F)C(F)(F)F)nccn12` [Compound P9, 1-[5-ethylsulfonyl-6-[8-(2,2,3,3,3-penta-fluoropropoxy)imidazo [1,5-a]pyrazin-3-yl]-2-pyridyl]-3-methyl-urea], the percent effect (mortality or growth inhibition) at 200 ppm in assay [1] and in assay [2] was at least 80% in each case.

`CCS(=O)(=O)c1ccc(N(C)C(=O)NC)nc1-c1ncc2c(OCC(F)(F)C(F)(F)F)nccn12` [Compound P14, 1-[5-ethylsulfonyl-6-[8-(2,2,3,3,3-penta-fluoropropoxy)imidazo [1,5-a]pyrazin-3-yl]-2-pyridyl]-1,3-dimethyl-urea]: the percent effect (mortality or growth inhibition) at 200 ppm in assay [1] and in assay [2] was at least 80% each time. Also, in assay [3] (setting [5]), the percent control (mortality, anti-feedant effect or growth inhibition) at 200 ppm is at least 80%. Also, the mortality at 200 ppm in assay [4] (setting [6]) is at least 80%.

As to `CCS(=O)(=O)c1cc(C(C)(C)C#N)cnc1-c1ncc2c(OCC(F)(F)C(F)(F)F)nccn12` [Compound P16, 2-[5-ethylsulfonyl-6-[8-(2,2,3,3,3-penta-fluoropropoxy)imidazo [1,5-a]pyrazin-3-yl]-3-pyridyl]-2-methyl-propanenitrile], the percent effect (mortality or growth inhibition) at 200 ppm in assay [1] and in assay [2] was at least 80% each time. In addition, in assay [3] (setting [5]), the percent control (mortality, anti-feedant effect or growth inhibition) at 200 ppm was at least 80%. For the same compound, the mortality at 200 ppm in assay [4] (setting [6]) was at least 80%.

In the case of `CCSc1cc(Oc2ccccn2)cnc1-c1ncc2c(OCC(F)(F)C(F)(F)F)nccn12` [Compound P20, 3-[3-ethylsulfanyl-5-(2-pyridyloxy)-2-pyridyl]-8-(2,2,3,3,3-penta-fluoropropoxy)imidazo [1,5-a]pyrazine], the percent effect (mortality or growth inhibition) at 200 ppm in assay [1] and in assay [2] was at least 80% in each case. Moreover, the percent control (mortality, anti-feedant effect or growth inhibition) at 200 ppm in assay [3] (setting [5]) is at least 80%.

Consider `CCSc1cc(C2CC2)cnc1-c1ncc2c(OCC(F)(F)C(F)(F)F)nccn12` [Compound P22, 3-(5-cyclopropyl-3-ethylsulfanyl-2-pyridyl)-8-(2,2,3,3,3-penta-fluoropropoxy)imidazo [1,5-a]pyrazine], for which the percent effect (mortality or growth inhibition) at 200 ppm in assay [1] and in assay [2] was at least 80% each time. For the same compound, the percent control (mortality, anti-feedant effect or growth inhibition) at 200 ppm in assay [3] (setting [5]) was at least 80%.

Consider `CCS(=O)(=O)c1ccc(Cl)nc1-c1ncc2c(OCC(F)(F)C(F)(F)F)cccn12` [Compound P30, 3-(6-chloro-3-ethylsulfonyl-2-pyridyl)-8-(2,2,3,3,3-pentafluoropropoxy)imi-dazo[1,5-a]pyridine], for which the percent control (mortality or growth inhibition) at 200 ppm in assay [1] was at least 80%. The percent control (mortality, anti-feedant effect or growth inhibition) at 200 ppm in assay [3] was at least 80%.

Turning to `CCS(=O)(=O)c1ccc(-n2cncn2)nc1-c1ncc2c(OCC(F)(F)C(F)(F)F)cccn12` [Compound P33, 3-[3-ethylsulfonyl-6-(1,2,4-triazol-1-yl)-2-pyridyl]-8-(2,2,3,3,3-pentafluoropropoxy)imi dazo[1,5-a]pyri-dine], the percent control (mortality or growth inhibition) at 200 ppm in assay [1] and in assay [2] was at least 80% each time. Besides, the percent control (mortality, anti-feedant effect or growth inhibition) at 200 ppm in assay [3] was at least 80%.

Take `CCS(=O)(=O)c1ccc(N(C)C(C)=O)nc1-c1ncc2c(OCC(F)(F)C(F)(F)F)cccn12` [Compound P37, N-[5-ethylsulfonyl-6-[8-(2,2,3,3,3-penta-fluoropropoxy)imidazo [1,5-a]pyridin-3-yl]-2-pyridyl]-N-methyl-acetamide]: the percent effect (mortality or growth inhibition) at 200 ppm in assay [1] and in assay [2] was at least 80% throughout. Besides, in assay [4] (setting [6]), the mortality at 200 ppm was at least 80%.

Regarding `CCS(=O)(=O)c1ccc(N(C)C(=O)C2CC2)nc1-c1ncc2c(OCC(F)(F)C(F)(F)F)cccn12` [Compound P38, N-[5-ethylsulfonyl-6-[8-(2,2,3,3,3-penta-fluoropropoxy)imidazo [1,5-a]pyridin-3-yl]-2-pyridyl]-N-methyl-cyclopropanecarboxamide], the percent effect (mortality or growth inhibition) at 200 ppm in assay [1] and in assay [2] was at least 80% each time. Besides, the percent control (mortality, anti-feedant effect or growth inhibition) at 200 ppm in assay [3] (setting [5]) is at least 80%.

Take `CCS(=O)(=O)c1cc(C2CC2)cnc1-c1ncc2c(OCC(F)(F)C(F)(F)F)cccn12` [Compound P40, 3-(5-cyclopropyl-3-ethylsulfonyl-2-pyridyl)-8-(2,2,3,3,3-penta-fluoropropoxy)imidazo [1,5-a]pyridine]: the percent effect (mortality or growth inhibition) at 200 ppm in assay [1] and in assay [2] was at least 80% in each case. For the same compound, the mortality at 200 ppm in assay [4] (setting [6]) is at least 80%.

Consider `CCSc1cc(N(C)C(C)=O)cnc1-c1ncc2c(OCC(F)(F)C(F)(F)F)cccn12` [Compound P41, N-[5-ethylsulfanyl-6-[8-(2,2,3,3,3-penta-fluoropropoxy)imidazo [1,5-a]pyridin-3-yl]-3-pyridyl]-N-methyl-acetamide], for which the percent effect (mortality or growth inhibition) at 200 ppm in assay [1] is at least 80%.

Take `CCSc1cc(C2CC2)cnc1-c1ncc2c(OCC(F)(F)C(F)(F)F)cccn12` [Compound P42, 3-(5-cyclopropyl-3-ethylsulfanyl-2-pyridyl)-8-(2,2,3,3,3-penta-fluoropropoxy)imidazo [1,5-a]pyridine]: the percent effect (mortality or growth inhibition) at 200 ppm in assay [1] and in assay [2] was at least 80% throughout.

Regarding `CCS(=O)(=O)c1cc(Br)cnc1-c1ncc2c(OCC(F)(F)C(F)(F)F)cccn12` [Compound P43, 3-(5-bromo-3-ethylsulfonyl-2-pyridyl)-8-(2,2,3,3,3-pentafluoropropoxy)imi-dazo[1,5-a]pyridine], the percent control (mortality or growth inhibition) at 200 ppm in assay [1] and in assay [2] was at least 80% each time.

For the compound `CCSc1cc(C(C)(C)C#N)cnc1-c1ncc2c(OCC(F)(F)C(F)(F)F)cccn12` [Compound P46, 2-[5-ethylsulfanyl-6-[8-(2,2,3,3,3-penta-fluoropropoxy)imidazo [1,5-a]pyridin-3-yl]-3-pyridyl]-2-methyl-propanenitrile], in assay [1], the percent effect (mortality or growth inhibition) at 200 ppm was at least 80%.

In the case of `CCS(=N)(=O)c1cc(OC(C)(C)C#N)cnc1-c1ncc2c(OCC(F)(F)C(F)(F)F)cccn12` (stereo not shown) [Compound P49, 2-[[5-(ethylsulfonimidoyl)-6-[8-(2,2,3,3,3-penta-fluoropropoxy)imidazo [1,5-a]pyridin-3-yl]-3-pyridyl]oxy]-2-methyl-propanenitrile], the percent effect (mortality or growth inhibition) at 200 ppm in assay [1] and in assay [2] was at least 80% in each case.

For `CCSc1cc(C2(C#N)CC2)cnc1-c1ncc2c(OCC(F)(F)C(F)(F)F)cccn12` [Compound P53, 1-[5-ethylsulfanyl-6-[8-(2,2,3,3,3-penta-fluoropropxoy)imidazo [1,5-a]pyridin-3-yl]-3-pyridyl]cyclopropane-carbonitrile], the percent effect (mortality or growth inhibition) at 200 ppm in assay [1] and in assay [2] was at least 80% throughout.
